The source of these data is US5220016A, “Synthesis of navelbine analogs” (priority 1991, dated 1993).

Data set [1] can be described thus: 72 hr cytotoxicity assay; in vitro antitumor activity. Format: cell-based. Conditions: for in vitro antitumor activity: in words, compared with vinblastine. The method, then:
The 18'(S)-epimer was tested in vitro for antitumor activity in comparison with the 18'(R)-epimer and vinblastine. IC50 's were determined in a 72 hr cytotoxicity assay.

The conditions of data set [2]: cited from earlier work.
Setting [3] is: 72 hr cytotoxicity assay, in vitro, cell line not given, read-out: IC50.
Where [4] appears, read: compared with vinblastine and vincristine (Fellous et al., 1989).

Values after ≈ are worked out from the molar mass of the structure shown. Read-outs that look alike come from different tables or passages of the source.

The term IC50 denotes the concentration that gives 50% inhibition. For the compound `CC[C@]12C=CCN3CC[C@@]4(c5cc([C@]6(C(=O)OC)C[C@@H]7CCCN(Cc8c6[nH]c6ccccc86)C7)c(OC)cc5N(C)[C@H]4[C@@](O)(C(=O)OC)[C@@H]1OC(C)=O)[C@@H]32` [18'(R)-Dihydrodesethylnavelbine, (+)-18'R-4'-Desethyl-4'-deshydroxy-7'-norvinblastine], in data set [1] (72 hr cytotoxicity assay, in vitro, cell line not given), the IC50 result was “no activity”. Moreover, the “in vitro antitumor activity” value in data set [1] was “inactive”.

In data set [1] (72 h), `CC[C@]12C=CCN3CC[C@@]4(c5cc([C@@]6(C(=O)OC)C[C@@H]7CCCN(Cc8c6[nH]c6ccccc86)C7)c(OC)cc5N(C)[C@H]4[C@@](O)(C(=O)OC)[C@@H]1OC(C)=O)[C@@H]32` [18'(S)-Dihydrodesethylnavelbine, (+)-18'S-4'-Desethyl-4'-deshydroxy-7'-norvinblastine] yielded an IC50 of 0.5 ng/mL (≈ 0.664 nM). Moreover, the “in vitro antitumor activity” value in data set [1] is given as “comparable to vinblastine”.

As to `CCC1=C[C@@H]2CN(C1)Cc1c([nH]c3ccccc13)[C@@](C(=O)OC)(c1cc3c(cc1OC)N(C)[C@H]1[C@@](O)(C(=O)OC)[C@H](OC(C)=O)[C@]4(CC)C=CCN5CC[C@]31[C@@H]54)C2` [Navelbine], in data set [1] (setting [3]), the IC50 turned out to be 5 ng/mL (≈ 6.42 nM). In data set [2] (compared with Vinblastine), the cytotoxicity entry is “decreased cytotoxicity compared with Vinblastine”. Besides, in data set [2] (setting [4]), the antitumor activity entry is “broader antitumor activity”; the “neurotoxicity and other side effects” value is “lower neurotoxicity and other side effects”.

On to `CC[C@]1(O)C[C@@H]2CN(CCc3c([nH]c4ccccc34)[C@@](C(=O)OC)(c3cc4c(cc3OC)N(C)[C@H]3[C@@](O)(C(=O)OC)[C@H](OC(C)=O)[C@]5(CC)C=CCN6CC[C@]43[C@@H]65)C2)C1` [Vinblastine], for which the IC50 in data set [1] (setting [3]) came to 0.5 ng/mL (≈ 0.617 nM).
